Results reported in article PMC9926489, “Chemical Optimization of Selective Pseudomonas aeruginosa LasB Elastase Inhibitors and Their Impact on LasB-Mediated Activation of IL-1β in Cellular and Animal Infection Models” (ACS Infectious Diseases, 2023).

Experiments:
[1] = biological target: T1, MMP-2 (Homo sapiens, UniProt P08253); assay: MMP-2 selectivity assay; type: biochemical; details: human MMP-2
T1 sequence (P08253 110-660): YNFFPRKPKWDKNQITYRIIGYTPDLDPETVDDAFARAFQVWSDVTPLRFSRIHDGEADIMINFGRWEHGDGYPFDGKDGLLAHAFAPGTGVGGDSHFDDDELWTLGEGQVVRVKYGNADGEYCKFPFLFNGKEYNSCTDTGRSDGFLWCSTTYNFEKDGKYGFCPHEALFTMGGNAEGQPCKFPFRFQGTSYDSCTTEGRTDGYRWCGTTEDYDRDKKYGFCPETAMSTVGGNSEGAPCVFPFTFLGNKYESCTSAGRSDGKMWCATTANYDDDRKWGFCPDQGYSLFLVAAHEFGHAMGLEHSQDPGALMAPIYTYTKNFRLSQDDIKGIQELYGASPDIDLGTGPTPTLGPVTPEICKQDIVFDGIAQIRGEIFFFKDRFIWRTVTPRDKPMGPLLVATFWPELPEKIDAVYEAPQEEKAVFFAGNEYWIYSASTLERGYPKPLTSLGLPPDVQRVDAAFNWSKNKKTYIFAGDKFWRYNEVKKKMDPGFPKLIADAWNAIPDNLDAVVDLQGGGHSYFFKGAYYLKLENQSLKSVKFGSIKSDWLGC
Protocol: (§1) Selectivity of compound inhibition was evaluated against other proteases at concentrations between 0.4 and 200 μM. Activity against rabbit angiotensin-converting enzyme (ACE, Sigma) was assessed using 10 μM fluorogenic substrate Abz-Phe-Arg-Lys(Dnp)-P (Enzo Life Sciences) in 100 mM Tris-HCl pH 7, 50 mM NaCl, 10 μM Zn SO4. Activity against human matrix metalloproteases (MMP)-2 and MMP-9 was assessed in 50 mM HEPES pH 7.5, 10 mM CaCl2, 0.01% Triton X-100 using 4 μM fluorogenic substrate Mca-Pro-Leu-Gly-Leu-Dpa-Ala-Arg-NH2 (Enzo Life Sciences). Activity against MMP-1 and MMP-13 was assessed in 25 mM HEPES pH 7.5, 100 mM NaCl, 100 mM CaCl2, 0.0005% Brij using 7.5 μM fluorogenic substrate Mca-Lys-Pro-Leu-Gly-Leu-Dpa-Ala-Arg-NH2 (Sigma) for MMP-1 and 1.25 μM fluorogenic substrate Mca-Pro-Cha-Gly-Nva-His-Ala-Dpa-NH2 (Millipore) for MMP-13. Activity against human neutrophil elastase (HNE, Enzo Life Sciences) was assessed in 100 mM HEPES pH 7.5, 500 mM NaCl, 0.01% of Triton X-100 using 100 μM fluorogenic substrate MeOSuc-AAPV-AMC (Enzo Life Sciences).

[2] = biological target: T2, human neutrophil elastase (HNE) (Homo sapiens, UniProt P08246); assay: HNE selectivity assay; type: biochemical
T2 construct: purchased Enzo Life Sciences
T2 sequence (P08246 30-267): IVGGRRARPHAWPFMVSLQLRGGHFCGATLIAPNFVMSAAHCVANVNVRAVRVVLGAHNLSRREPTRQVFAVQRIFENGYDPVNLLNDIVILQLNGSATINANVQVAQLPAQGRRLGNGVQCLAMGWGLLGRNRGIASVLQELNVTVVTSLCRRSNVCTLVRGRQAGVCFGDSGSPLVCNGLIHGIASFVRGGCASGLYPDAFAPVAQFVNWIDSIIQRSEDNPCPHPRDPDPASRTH
Protocol: as §1

[3] = biological target: T3, purified LasB (Pseudomonas aeruginosa, UniProt P14756); assay: Inhibition of LasB-mediated proteolysis of pro-IL-1β-derived peptide Sub115; type: biochemical, P. aeruginosa
T3 construct: The mature LasB protein is a 33 kDa metalloprotease, which is secreted from P. aeruginosa; host or cells: P. aeruginosa PAO1 (native secretion, culture supernatant)
T3 sequence (P14756 198-498): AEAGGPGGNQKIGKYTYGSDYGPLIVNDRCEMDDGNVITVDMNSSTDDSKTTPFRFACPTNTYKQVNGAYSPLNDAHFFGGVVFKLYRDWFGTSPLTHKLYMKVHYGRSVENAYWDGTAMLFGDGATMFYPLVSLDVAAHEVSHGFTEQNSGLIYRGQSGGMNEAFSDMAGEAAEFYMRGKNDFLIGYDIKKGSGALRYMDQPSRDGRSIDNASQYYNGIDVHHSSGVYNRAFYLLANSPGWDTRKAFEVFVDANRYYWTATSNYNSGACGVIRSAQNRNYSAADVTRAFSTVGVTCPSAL
Source text: Previous studies have shown that LasB cleaves the N-terminal domain of pro-IL-1β, thereby generating a mature active form of IL-1β in a manner analogous to the normal host activation mechanism involving cleavage by caspases.[16] This activity can be followed spectrophotometrically via hydrolysis of an internally quenched fluorescent peptide Sub115 (McA-HDAPVRSLN-K-Dnp), which incorporates the LasB cleavage site from pro-IL-1β. To determine whether compounds 12 and 16 were able to inhibit this activity, Sub115 hydrolysis was measured in the presence of varying concentrations of substrate and inhibitors (Figure 2B). […] These values, although still submicromolar, were higher than those determined with the Abz-AGLA-Nba hydrolysis assay, perhaps due to the different ion composition of the respective assay buffers.
The peptide HDAPVRSLN, corresponding to amino acids 115–123 of the reference human pro-IL-1β sequence (UniProt: PO1584), was labeled on the N-terminus with Mca and on the C-terminus with Lys-Dnp (CPC Scientific) to generate an internally quenched fluorescent peptide (Sub115). […] The reaction was continuously monitored using a Victor multimode plate reader (PerkinElmer) with excitation at 355 nm and emission at 450 nm, and initial kinetic velocity was calculated. Inhibitory constants (Ki) were determined (two independent replicates) using a competitive inhibitor model.

[4] = test system: activated IL-1β; assay: Mouse P. aeruginosa lung infection model, activated IL-1β in lung homogenates; type: in vivo; details: C57Bl/6 mice, 10 and 30 mg/kg IV at 1 and 4 h post-infection, 24 h; p < 0.0001
Protocol: To investigate if compounds 12 and 16 were able to engage the LasB target in vivo, in the context of a P. aeruginosa lung infection, and to determine the consequences of that inhibition, immunocompetent C57Bl/6 mice were infected intranasally with P. aeruginosa PAO1 and treated with two doses of inhibitors, 10 and 30 mg/kg, administered IV at 1 and 4 h post-infection (Figure 5A). A control group of PAO1-infected animals treated with vehicle and a group of animals infected with the isogenic ΔlasB strain were included in the study. Mice were euthanized 24 h post-infection and their lung homogenates assayed for activated mature IL-1β (using the IL-1 reporter assay) and bacterial numbers (by CFU enumeration).
Infection experiments were approved by the Institutional Animal Care and Use Committee of Emory University. To prepare the bacterial inoculum, P. aeruginosa PAO1 (or its ΔlasB derivative) was grown in Luria broth with shaking at physiologic (37 °C) temperature for 18 h to maximally express LasB (at late log phase). […] Active IL-1β was quantified by adding 100 μL of cell-free homogenate to IL-1β responsive HEK IL-1R-lux reporter cells. Activity was assayed by luminescence measured with D-luciferin substrate (Steady-Luc, Biotium) on a multimode reader (PerkinElmer) and expressed as relative luminescence units (RU). […] Statistics were calculated by ANOVA with a Dunnett post-test.

| Compound | IC50 [1] | IC50 [2] | Ki [3] | decrease in activated IL-1β in lung homogenates vs PAO1-infected control group [4] |
| --- | --- | --- | --- | --- |
| COc1cc2sc(CNC(=O)C3(CC(=O)O)Cc4ccccc4C3)nc2cc1OCCC[N+](C)(C)C [Compound 12] | > 200 µM | > 200 µM | 0.704 µM | up to 4 fold |
| COc1cc2sc(CNC(=O)C3(CC(=O)O)Cc4cc(F)c(F)cc4C3)nc2cc1OCCC[N+](C)(CCO)CCO [Compound 16] | > 200 µM | > 200 µM | 0.475 µM | up to 4 fold |
